{
  "source": "patent US8580780B2",
  "about": "“6 substituted 2, 3,4,5 tetrahydro-1H-benzo[d]azepines as 5-HT2C receptor agonist” (Eli Lilly and Company, priority 2004, dated 2013)",
  "key": {"[1]": {"conditions": "rat, in vivo; cited from earlier work"}, "Marble burying assay": {"assay": "Marble burying assay", "type": "in vivo, male NIH Swiss mice", "conditions": "mice, 30 min session, with rotorod check", "description": "Marble burying in mice has been used to model anxiety disorders including obsessive-compulsive disorders (OCD) due to ethological study of the behavior (e.g. Gyertyan I. “Analysis of the marble burying response: Marbles serve to measure digging rather than evoke burying”, Behavioural Pharmacology 6: 24-31, (1995)) and due to the pharmacological effects of clinical standards (c.f., Njung'E K. Handley S L. “Evaluation of marble-burying behavior as a model of anxiety”, Pharmacology, Biochemistry & Behavior. 38: 63-67, (1991)); Borsini F., Podhorna J., and Marazziti, D. “Do animal models of anxiety predict anxiolytic effects of antidepressants?”, Psychopharmacology 163: 121-141, (2002)).\nHouse experimentally-naïve male, NIH Swiss mice (Harlan Sprague-Dawley, Indianapolis, Ind.) weighing between 28-35g in groups of 12 for at least three days prior to testing in a vivarium with 12 h light and dark cycles. Conduct experiments during the light cycle in a dimly lit experimental testing room. Dose mice with vehicle or test compound and, after a specified pretreatment interval (generally 30 min.), place each mouse individually on a rotorod (Ugo Basile 7650) operating at a speed of 6 revolutions/min. and observe for falling. […]\nClinically effective standard compounds suppress marble burying at doses that are devoid of motor-impairing effects as measured on the rotorod. […]"}, "Nestlet shredding": {"assay": "Nestlet shredding", "type": "in vivo, male NIH Swiss mice", "conditions": "mice, 30 min", "description": "Mice naturally will construct nests of material available in their living environment. Since this behavior is obsessive in nature, it has been used to model OCD (Xia Li, Denise Morrow and Jeffrey M. Witkin, “Decreases in nestlet shredding of mice by serotonin uptake inhibitors: comparison with marble burying”, Psychopharmacology, submitted Jul. 14, 2003). House experimentally-naïve male, NIH Swiss mice (Harlan Sprague-Dawley, Indianapolis, Ind.) weighing between 28-35g in groups of 12 for at least three days prior to testing in a vivarium with a 12 h light/dark cycle. Conduct experiments during the light cycle in an experimental room with normal overhead fluorescent lighting. Dose mice with vehicle or test compound and after a specified pretreatment interval (generally 30 min.), place the mice individually in a 17×28×12 cm high plastic tub with about 5 mm sawdust shavings on the floor along with a pre-weighed multi-ply gauze pad (51 mm square). After 30 min., weigh the remainder of the game pad not removed by the mouse. Determine the weight of the gauze used for nestlet construction by subtraction. Compare the results for test compound treated mice to the results for vehicle control treated mice with Dunnett's test.\nClinically effective OCD treatment standard compounds suppress nestlet shredding at doses that are devoid of motor-impairing effects as measured by the rotorod test. […]"}, "[2]": {"assay": "Schedule-induced polydipsia", "type": "in vivo, Wistar rats", "description": "Food-deprived rats exposed to intermittent presentations of food will drink amounts of water that are far in excess of their normal daily intake and in excess of their intake when given all of their food at one time (Falk J L. “Production of polydipsia in normal rats by an intermittent food schedule”, Science 133: 195-196, (1961)). This excessive behavior is persistent and has been used to model OCD.\nMaintain Wistar rats on a food restricted diet (to maintain 85% free feeding weight), but with free access to water. Train the rats in a behavioral testing chamber to press a lever to receive a food pellet under a fixed interval schedule, such that the rats are rewarded with a 45 mg food pellet the first time they press a lever after a 120 second interval has elapsed. The fixed interval is then reset to 120 seconds and the process repeated. Thus, during a 90 min. test session, the rats can earn a maximum of 45 pellets. The behavioral chamber is also equipped with a water bottle that is weighed before and after the session to determine the amount of water consumed.\nAdminister test compounds on Tuesdays and Fridays. […] Compare the rates of lever pressing and water consumption for each animal's performance during sessions after test compound treatment with that animal's performance during control sessions, expressed as a percent of the control rate. […]"}, "[3]": {"conditions": "mouse, in vivo; cited from earlier work"}},
  "data": [
    {"smiles": "Clc1ccc2c(c1SCc1ccccn1)CCNCC2.O=C(O)CCC(=O)O", "values": [
      {"measurement": "melting point", "result": "159 to 160", "unit": "°C"}
    ]},
    {"smiles": "CN(C)CCCN1c2ccccc2CCc2ccc(Cl)cc21", "note": "[chlomipramine]", "values": [
      {"measurement": "schedule-induced polydipsia (clinically effective OCD standards)", "setting": "[1]", "result": "suppress schedule-induced polydipsia without producing notable changes in motor patterns, food intake, or behavior the following day"}
    ]},
    {"smiles": "CN(C)CCCN1c2ccccc2Sc2ccc(Cl)cc21", "note": "[chlorpromazine]", "values": [
      {"measurement": "marble burying behavior", "setting": "Marble burying assay", "result": "decrease marble burying only at doses that also disrupt rotorod performance"}
    ]},
    {"smiles": "C[C@H](N)Cc1ccccc1", "note": "[d-amphetamine]", "values": [
      {"measurement": "nestlet shredding", "setting": "Nestlet shredding", "result": "decreases nestlet shredding only at doses that produce motoric side effects"},
      {"measurement": "Effect on polydipsia with co-administration of 5-HT2C antagonist", "setting": "[2]; rat, in vivo", "result": "not prevented by the 5HT2C receptor antagonist"},
      {"measurement": "schedule-induced polydipsia (excessive drinking)", "setting": "[2]; rats, 90 min session", "result": "decreases excessive drinking only at behaviorally stimulating doses"}
    ]},
    {"smiles": "CNCCC(Oc1ccc(C(F)(F)F)cc1)c1ccccc1", "note": "(centres unmarked) [fluoxetine]", "values": [
      {"measurement": "marble burying (clinical standards, literature)", "setting": "[3]", "result": "decrease burying"},
      {"measurement": "schedule-induced polydipsia (clinically effective OCD standards)", "setting": "[1]", "result": "suppress schedule-induced polydipsia without producing notable changes in motor patterns, food intake, or behavior the following day"}
    ]}
  ]
}
